According to US20260365682A1, “MODULATORS OF TNF-ALPHA ACTIVITY” (Forward Therapeutics, Inc., priority 2022, published 2026):
One block for each molecule: values may come before it.

Target: T1, TNF-α (Homo sapiens, UniProt P01375)
T1 construct: purchased R&D 210-TA-020/CF
Assay: TNF-α Induced HEK Blue Cellular Assay (secreted alkaline phosphatase expression, QUANTI-Blue)
Format: cell-based
Conditions: HEK Blue TNFα reporter cells; TNF-α 100 μg/ml; 24 hrs at 37° C.; inhibition of secreted alkaline phosphatase; read-out: IC50 value
Procedure, shortened: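 Compound was serially diluted from […] to 0.5 nM final, then incubated with 10,000 HEK Blue TNFα reporter cells per well and […] TNF-α for 24 h at 37° C. SEAP output was read by QUANTI-Blue absorbance at 620 nm. Inhibition was background-corrected against DMSO controls with and without stimulation, and IC50 was fitted with a 4-parameter logistic equation.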

T1 sequence (P01375 77-233 limits assumed): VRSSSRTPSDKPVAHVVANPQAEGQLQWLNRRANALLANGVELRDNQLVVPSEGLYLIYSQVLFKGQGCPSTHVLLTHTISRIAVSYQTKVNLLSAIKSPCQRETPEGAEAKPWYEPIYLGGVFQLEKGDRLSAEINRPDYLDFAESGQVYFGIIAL

Compound: [2H]C([2H])([2H])N1C(=O)c2cccc(OC(F)F)c2[C@H]2C[C@@H]1c1nc3ccc(C#CCCNC(=O)C4CC4)cc3n12 [Example 214, N-(4-((7R,14R)-1-(difluoromethoxy)-6-(methyl-d3)-5-oxo-5,6,7,14-tetrahydro-7,14-methanobenzo[f]benzo[4,5]imidazo[1,2-a][1,4]diazocin-11-yl)but-3-yn-1-yl)cyclopropanecarboxamide]
- IC50: 100 to 1000 nM

Compound: [2H]C([2H])([2H])N1C(=O)c2cccc(OC(F)F)c2[C@H]2C[C@@H]1c1nc3ccc(C#CCCCC)cc3n12 [Example 91, (7R,14R)-1-(difluoromethoxy)-11-(hex-1-yn-1-yl)-6-(methyl-d3)-6,7-dihydro-7,14-methanobenzo[f]benzo[4,5]imidazo[1,2-a][1,4]diazocin-5(14H)-one]
- IC50: < 100 nM

Compound: [2H]C([2H])([2H])N1C(=O)c2cccc(OC(F)F)c2[C@H]2C[C@@H]1c1nc3ccc(C#CCN(C)CC)cc3n12 [Example 67, (7R,14R)-1-(difluoromethoxy)-11-(3-(ethyl(methyl)amino)prop-1-yn-1-yl)-6-(methyl-d3)-6,7-dihydro-7,14-methanobenzo[f]benzo[4,5]imidazo[1,2-a][1,4]diazocin-5(14H)-one]
- IC50: 100 to 1000 nM

Compound: [2H]C([2H])([2H])N1C(=O)c2cccc(OC(F)F)c2[C@H]2C[C@@H]1c1nc3ccc(C#Cc4cnc(C)nc4)cc3n12 [Example 21, (7R,14R)-1-(difluoromethoxy)-6-(methyl-d3)-11-((2-methylpyrimidin-5-yl)ethynyl)-6,7-dihydro-7,14-methanobenzo[f]benzo[4,5]imidazo[1,2-a][1,4]diazocin-5(14H)-one]
- IC50: < 100 nM

Compound: [2H]C([2H])([2H])N1C(=O)c2cccc(OC(F)F)c2[C@H]2C[C@@H]1c1nc3ccc(C#C[C@@H](C)NCC)cc3n12 [Example 54, (7R,14R)-1-(difluoromethoxy)-11-((R)-3-(ethylamino)but-1-yn-1-yl)-6-(methyl-d3)-6,7-dihydro-7,14-methanobenzo[f]benzo[4,5]imidazo[1,2-a][1,4]diazocin-5(14H)-one]
- IC50: 10000 to 30000 nM

Compound: [2H]C([2H])([2H])N1C(=O)c2cccc(OC(F)F)c2[C@H]2C[C@@H]1c1nc3ccc(C#Cc4cn(C)nc4C#N)cc3n12 [Example 20, 4-(((7R,14R)-1-(difluoromethoxy)-6-(methyl-d3)-5-oxo-5,6,7,14-tetrahydro-7,14-methanobenzo[f]benzo[4,5]imidazo[1,2-a][1,4]diazocin-11-yl)ethynyl)-1-methyl-1H-pyrazole-3-carbonitrile]
- IC50: < 100 nM

Compound: [2H]C([2H])([2H])N1C(=O)c2cccc(OC(F)F)c2[C@H]2C[C@@H]1c1nc3ccc(C#CCCCC(=O)O)cc3n12 [Example 98, 6-((7R,14R)-1-(difluoromethoxy)-6-(methyl-d3)-5-oxo-5,6,7,14-tetrahydro-7,14-methanobenzo[f]benzo[4,5]imidazo[1,2-a][1,4]diazocin-11-yl)hex-5-ynoic Acid]
- IC50: < 100 nM

Compound: [2H]C([2H])([2H])N1C(=O)c2cccc(OC(F)F)c2[C@H]2C[C@@H]1c1nc3ccc(C#CCC(C)(C)O)cc3n12 [Example 82, (7R,14R)-1-(difluoromethoxy)-11-(4-hydroxy-4-methylpent-1-yn-1-yl)-6-(methyl-d3)-6,7-dihydro-7,14-methanobenzo[f]benzo[4,5]imidazo[1,2-a][1,4]diazocin-5(14H)-one]
- IC50: 10000 to 30000 nM

Compound: [2H]C([2H])([2H])N1C(=O)c2cccc(OC(F)F)c2[C@H]2C[C@@H]1c1nc3ccc(C#CCOC(C)C)cc3n12 [Example 74, (7R,14R)-1-(difluoromethoxy)-11-(3-isopropoxyprop-1-yn-1-yl)-6-(methyl-d3)-6,7-dihydro-7,14-methanobenzo[f]benzo[4,5]imidazo[1,2-a][1,4]diazocin-5(14H)-one]
- IC50: < 100 nM

Compound: [2H]C([2H])([2H])N1C(=O)c2cccc(OC(F)F)c2[C@H]2C[C@@H]1c1nc3ccc(C#CC4CNC4)cc3n12 [Example 69, (7R,14R)-11-(azetidin-3-ylethynyl)-1-(difluoromethoxy)-6-(methyl-d3)-6,7-dihydro-7,14-methanobenzo[f]benzo[4,5]imidazo[1,2-a][1,4]diazocin-5(14H)-one]
- IC50: 100 to 1000 nM

The next lines start with the values.

- IC50: < 100 nM
Compound: [2H]C([2H])([2H])N1C(=O)c2cccc(OC(F)F)c2[C@H]2C[C@@H]1c1nc3ccc(C#Cc4cn[nH]c4)cc3n12 [Example 14, (7R,14R)-11-((1H-pyrazol-4-yl)ethynyl)-1-(difluoromethoxy)-6-(methyl-d3)-6,7-dihydro-7,14-methanobenzo[f]benzo[4,5]imidazo[1,2-a][1,4]diazocin-5(14H)-one]

- IC50: < 100 nM
Compound: [2H]C([2H])([2H])N1C(=O)c2cccc(OC(F)F)c2[C@H]2C[C@@H]1c1nc3ccc(C#CCC(C)O)cc3n12 (single isomer, unassigned) [Example 139, (7R,14R)-1-(difluoromethoxy)-11-((R or S)-4-hydroxypent-1-yn-1-yl)-6-(methyl-d3)-6,7-dihydro-7,14-methanobenzo[f]benzo[4,5]imidazo[1,2-a][1,4]diazocin-5(14H)-one]

- IC50: < 100 nM
Compound: [2H]C([2H])([2H])N1C(=O)c2cccc(OC(F)F)c2[C@H]2C[C@@H]1c1nc3ccc(C#CC4(C)CN(C)C4)cc3n12 [Example 155, (7R,14R)-1-(difluoromethoxy)-11-((1,3-dimethylazetidin-3-yl)ethynyl)-6-(methyl-d3)-6,7-dihydro-7,14-methanobenzo[f]benzo[4,5]imidazo[1,2-a][1,4]diazocin-5(14H)-one]

- IC50: < 100 nM
Compound: [2H]C([2H])([2H])N1C(=O)c2cccc(OC(F)F)c2[C@H]2C[C@@H]1c1nc3c(F)cc(C#CC4(C)COC4)cc3n12 [Example 145, (7R,14R)-1-(difluoromethoxy)-9-fluoro-6-(methyl-d3)-11-((3-methyloxetan-3-yl)ethynyl)-6,7-dihydro-7,14-methanobenzo[f]benzo[4,5]imidazo[1,2-a][1,4]diazocin-5(14H)-one]

- IC50: 100 to 1000 nM
Compound: [2H]C([2H])([2H])N1C(=O)c2cccc(OC(F)F)c2[C@H]2C[C@@H]1c1nc3ccc(C#CCOC)cc3n12 [Example 42, (7R,14R)-1-(difluoromethoxy)-11-(3-methoxyprop-1-yn-1-yl)-6-(methyl-d3)-6,7-dihydro-7,14-methanobenzo[f]benzo[4,5]imidazo[1,2-a][1,4]diazocin-5(14H)-one]

- IC50: < 100 nM
Compound: [2H]C([2H])([2H])N1C(=O)c2cccc(OC(F)F)c2[C@H]2C[C@@H]1c1nc3ccc(C#CC4CC(N)C4)cc3n12 (stereo partly drawn) [Example 113, (7R,14R)-11-((3-aminocyclobutyl)ethynyl)-1-(difluoromethoxy)-6-(methyl-d3)-6,7-dihydro-7,14-methanobenzo[f]benzo[4,5]imidazo[1,2-a][1,4]diazocin-5(14H)-one]

- IC50: 100 to 1000 nM
Compound: [2H]C([2H])([2H])N1C(=O)c2cccc(OC(F)F)c2[C@H]2C[C@@H]1c1nc3ccc(C#C[C@H](C)O)cc3n12 [Example 169, (7R,14R)-1-(difluoromethoxy)-11-((S)-3-hydroxybut-1-yn-1-yl)-6-(methyl-d3)-6,7-dihydro-7,14-methanobenzo[f]benzo[4,5]imidazo[1,2-a][1,4]diazocin-5(14H)-one]
